Source: patent US11180470B2, “Herbicidal pyrimidine compounds” (BASF SE, priority 2016, dated 2021)

What was measured:
ECHCG [1] = test: greenhouse experiment, post-emergence treatment; format: in vivo, Echinocloa crus-galli; details: post-emergence method, scale from 0 to 100
Procedure: The seeds of the test plants were sown separately for each species. […] For this purpose, the test plants were either sown directly and grown in the same containers, or they were first grown separately as seedlings and transplanted into the test containers a few days prior to treatment. Depending on the species, the plants were kept at 10-25° C. or 20-35° C., respectively. The test period extended over 2 to 4 weeks. During this time, the plants were tended, and their response to the individual treatments was evaluated. Evaluation was carried out using a scale from 0 to 100. 100 means no emergence of the plants, or complete destruction of at least the aerial moieties, and 0 means no damage, or normal course of growth. A good herbicidal activity is given at values of at least 70 and a very good herbicidal activity is given at values of at least 85. The plants used in the greenhouse experiments were of the following species: [table]

ECHCG [2] = test: greenhouse experiment, pre-emergence treatment; format: in vivo, Echinocloa crus-galli; details: pre-emergence method, scale from 0 to 100
Text: (§1) The seeds of the test plants were sown separately for each species. For the pre-emergence treatment, the active ingredients, which had been suspended or emulsified in water, were applied directly after sowing by means of finely distributing nozzles. The containers were irrigated gently to promote germination and growth and subsequently covered with transparent plastic hoods until the plants had rooted. This cover caused uniform germination of the test plants, unless this had been impaired by the active ingredients. Depending on the species, the plants were kept at 10-25° C. or 20-35° C., respectively. The test period extended over 2 to 4 weeks. During this time, the plants were tended, and their response to the individual treatments was evaluated. Evaluation was carried out using a scale from 0 to 100. 100 means no emergence of the plants, or complete destruction of at least the aerial moieties, and 0 means no damage, or normal course of growth. A good herbicidal activity is given at values of at least 70 and a very good herbicidal activity is given at values of at least 85. The plants used in the greenhouse experiments were of the following species: [table]

APESV = test: greenhouse experiment, pre-emergence treatment; format: in vivo, Apera spica-venti; details: pre-emergence method, scale from 0 to 100
Text: as §1

AVEFA = test: greenhouse experiment, post-emergence treatment; format: in vivo, Avena fatua; details: post-emergence method, scale from 0 to 100
Text: (§2) The culture containers used were plastic flowerpots containing loamy sand with approximately 3.0% of humus as the substrate. The seeds of the test plants were sown separately for each species.
(§3) For the post-emergence treatment, the test plants were first grown to a height of 3 to 15 cm, depending on the plant habit, and only then treated with the active ingredients which had been suspended or emulsified in water. For this purpose, the test plants were either sown directly and grown in the same containers, or they were first grown separately as seedlings and transplanted into the test containers a few days prior to treatment.
(§4) Depending on the species, the plants were kept at 10-25° C. or 20-35° C., respectively.
(§5) The test period extended over 2 to 4 weeks. During this time, the plants were tended, and their response to the individual treatments was evaluated.
(§6) Evaluation was carried out using a scale from 0 to 100. 100 means no emergence of the plants, or complete destruction of at least the aerial moieties, and 0 means no damage, or normal course of growth. A good herbicidal activity is given at values of at least 70 and a very good herbicidal activity is given at values of at least 85.
(§7) The plants used in the greenhouse experiments were of the following species: […]

ALOMY = test: greenhouse experiment, post-emergence treatment; format: in vivo, Alopecurus myosuroides; details: post-emergence method, scale from 0 to 100
Text: as §2, §3, §4, §5, §6, §7

| SMILES | herbicidal activity against ECHCG (ECHCG [1]; application rate 2000 g/ha) | herbicidal activity against ECHCG (ECHCG [2]; application rate 2000 g/ha) | herbicidal activity against APESV (APESV; application rate 2000 g/ha) | herbicidal activity against ALOMY (ALOMY; application rate 2000 g/ha) | further results |
| --- | --- | --- | --- | --- | --- |
| COC(=O)c1nc(C2CC2)ncc1-c1sccc1C [Example 4] | very good (a very good herbicidal activity is given at values of at least 85) | very good (a very good herbicidal activity is given at values of at least 85) | – | – | – |
| COC(=O)c1nc(C2CC2)ncc1-c1ccsc1C [Example 5] | – | very good (a very good herbicidal activity is given at values of at least 85) | – | – | – |
| Cc1cscc1-c1cnc(C2CC2)nc1C(=O)O [Example 6] | very good (a very good herbicidal activity is given at values of at least 85) | very good (a very good herbicidal activity is given at values of at least 85) | very good (a very good herbicidal activity is given at values of at least 85) | – | – |
| COC(=O)c1nc(C2CC2)ncc1-c1cscc1C [Example 7] | very good (a very good herbicidal activity is given at values of at least 85) | very good (a very good herbicidal activity is given at values of at least 85) | – | – | – |
| Cc1sccc1-c1cnc(C2CC2)nc1C(=O)O [Example 8] | – | very good (a very good herbicidal activity is given at values of at least 85) | very good (a very good herbicidal activity is given at values of at least 85) | – | – |
| COC(=O)c1nc(C2CC2)ncc1-c1ccsc1Cl [Example 11] | – | – | – | – | herbicidal activity against AVEFA (AVEFA; application rate 1000 g/ha): good (A good herbicidal activity is given at values of at least 70); herbicidal activity against ALOMY (ALOMY; application rate 1000 g/ha): very good (a very good herbicidal activity is given at values of at least 85); herbicidal activity against ECHCG (ECHCG [2]; application rate 1000 g/ha): very good (a very good herbicidal activity is given at values of at least 85) |
| O=C(O)c1nc(C2CC2)ncc1-c1ccsc1Cl [Example 12] | – | – | – | – | herbicidal activity against AVEFA (AVEFA; application rate 1000 g/ha): very good (a very good herbicidal activity is given at values of at least 85); herbicidal activity against ALOMY (ALOMY; application rate 1000 g/ha): very good (a very good herbicidal activity is given at values of at least 85); herbicidal activity against ECHCG (ECHCG [2]; application rate 1000 g/ha): very good (a very good herbicidal activity is given at values of at least 85); herbicidal activity against APESV (APESV; application rate 1000 g/ha): very good (a very good herbicidal activity is given at values of at least 85) |
| O=C(O)c1nc(C2CC2)ncc1-c1ccoc1Cl [Example 13] | very good (a very good herbicidal activity is given at values of at least 85) | very good (a very good herbicidal activity is given at values of at least 85) | very good (a very good herbicidal activity is given at values of at least 85) | very good (a very good herbicidal activity is given at values of at least 85) | – |
| O=C(O)c1nc(C2CC2)ncc1-c1ccoc1Br [Example 14] | – | – | – | – | herbicidal activity against ECHCG (ECHCG [2]; application rate 1000 g/ha): very good (a very good herbicidal activity is given at values of at least 85); herbicidal activity against APESV (APESV; application rate 1000 g/ha): good (A good herbicidal activity is given at values of at least 70) |
| COC(=O)c1nc(C2CC2)ncc1-c1ccoc1Cl [Example 15] | – | good (A good herbicidal activity is given at values of at least 70) | – | – | – |
| COC(=O)c1nc(C2CC2)ncc1-c1ncccc1Cl [Example 16] | – | – | – | – | herbicidal activity against AVEFA (AVEFA; application rate 1000 g/ha): good (A good herbicidal activity is given at values of at least 70); herbicidal activity against ALOMY (ALOMY; application rate 1000 g/ha): very good (a very good herbicidal activity is given at values of at least 85); herbicidal activity against ECHCG (ECHCG [1]; application rate 1000 g/ha): very good (a very good herbicidal activity is given at values of at least 85); herbicidal activity against ECHCG (ECHCG [2]; application rate 1000 g/ha): good (A good herbicidal activity is given at values of at least 70); herbicidal activity against APESV (APESV; application rate 1000 g/ha): good (A good herbicidal activity is given at values of at least 70) |
| O=C(O)c1nc(C2CC2)ncc1-c1cccnc1Br [Example 20] | very good (a very good herbicidal activity is given at values of at least 85) | very good (a very good herbicidal activity is given at values of at least 85) | very good (a very good herbicidal activity is given at values of at least 85) | – | herbicidal activity against AVEFA (AVEFA; application rate 2000 g/ha): very good (a very good herbicidal activity is given at values of at least 85) |
| COC(=O)c1nc(C2CC2)ncc1-c1ncc(F)cc1Br [Example 21] | very good (a very good herbicidal activity is given at values of at least 85) | very good (a very good herbicidal activity is given at values of at least 85) | very good (a very good herbicidal activity is given at values of at least 85) | very good (a very good herbicidal activity is given at values of at least 85) | herbicidal activity against AVEFA (AVEFA; application rate 2000 g/ha): very good (a very good herbicidal activity is given at values of at least 85) |
| O=C(O)c1nc(C2CC2)ncc1-c1ncccc1F [Example 23] | very good (a very good herbicidal activity is given at values of at least 85) | very good (a very good herbicidal activity is given at values of at least 85) | very good (a very good herbicidal activity is given at values of at least 85) | very good (a very good herbicidal activity is given at values of at least 85) | – |
| COC(=O)c1nc(C2CC2)ncc1-c1cccnc1F [Example 25] | – | – | – | – | herbicidal activity against ECHCG (ECHCG [1]; application rate 1000 g/ha): very good (a very good herbicidal activity is given at values of at least 85) |
| O=C(O)c1nc(C2CC2)ncc1-c1ncccc1Br [Example 29] | very good (a very good herbicidal activity is given at values of at least 85) | good (A good herbicidal activity is given at values of at least 70) | good (A good herbicidal activity is given at values of at least 70) | very good (a very good herbicidal activity is given at values of at least 85) | herbicidal activity against AVEFA (AVEFA; application rate 2000 g/ha): very good (a very good herbicidal activity is given at values of at least 85) |
| O=C(O)c1nc(C2CC2)ncc1-c1ncc(F)cc1F [Example 36] | – | very good (a very good herbicidal activity is given at values of at least 85) | very good (a very good herbicidal activity is given at values of at least 85) | very good (a very good herbicidal activity is given at values of at least 85) | herbicidal activity against AVEFA (AVEFA; application rate 2000 g/ha): very good (a very good herbicidal activity is given at values of at least 85) |
| O=C(O)c1nc(C2CC2)ncc1-c1ccncc1F [Example 37] | good (A good herbicidal activity is given at values of at least 70) | very good (a very good herbicidal activity is given at values of at least 85) | good (A good herbicidal activity is given at values of at least 70) | good (A good herbicidal activity is given at values of at least 70) | – |
| CCc1ncc(-c2ncccc2Br)c(C(=O)OC)n1 [Example 43] | – | very good (a very good herbicidal activity is given at values of at least 85) | – | – | – |
| CCc1ncc(-c2ncccc2F)c(C(=O)O)n1 [Example 50] | – | – | – | – | herbicidal activity against ECHCG (ECHCG [1]; application rate 1000 g/ha): very good (a very good herbicidal activity is given at values of at least 85) |
| COc1ncc(-c2ncccc2Br)c(C(=O)O)n1 [Example 51] | good (A good herbicidal activity is given at values of at least 70) | – | – | good (A good herbicidal activity is given at values of at least 70) | herbicidal activity against AVEFA (AVEFA; application rate 2000 g/ha): good (A good herbicidal activity is given at values of at least 70) |
